Among the test systems are TK-10 renal; OVCAR-5 ovarian; CCRF-CEM leukemia; A498 renal; SW-620 colon; OVCAR-3 ovarian; HCC-2998 colon; KM12 colon; HCT-116 colon.
Common to all, as to assay: growth of human tumour cells (NCI), 48 h

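48-hour exposure; five concentrations; linearly interpolated endpoints. TGI denotes the concentration required for complete inhibition of growth.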

Take `O=C(Cc1nc2ccccc2s1)Nc1cccc(C(F)(F)F)c1`: the TGI stood at 36.1 µM in the assay with TK-10 renal; 32.5 µM with OVCAR-5 ovarian; 4.79 µM in the assay with CCRF-CEM leukemia; 22.3 µM in the assay with A498 renal; 43.2 µM in the assay on SW-620 colon; 31.8 µM in the assay on OVCAR-3 ovarian. Further, the TGI in the assay on HCC-2998 colon worked out at 29.4 µM; in the assay on KM12 colon, 30.5 µM.

On to `O=CC[C@H]1CCc2ccccc2C12CCC(=O)CC2`, for which the TGI in the assay with OVCAR-5 ovarian, in the assay with CCRF-CEM leukemia, in the assay on A498 renal, in the assay with SW-620 colon, in the assay with OVCAR-3 ovarian and in the assay with HCC-2998 colon was above 100 µM in each case. Further, the TGI in the assay on KM12 colon and in the assay with HCT-116 colon was above 100 µM each time.

For the molecule `COc1cc2c3c(c1OC)-c1c(ccc4c1OCO4)CC3(C#N)N(C(=O)c1ccccc1)CC2` (stereo unspecified), the TGI in the assay on TK-10 renal, in the assay on OVCAR-5 ovarian, in the assay on CCRF-CEM leukemia, with A498 renal, in the assay with SW-620 colon and in the assay with OVCAR-3 ovarian was above 100 µM each time. For the same molecule, the TGI in the assay on KM12 colon and in the assay on HCT-116 colon was above 100 µM throughout.

Consider `O=[N+]([O-])c1cccc(C2ON2C2CCCCC2)c1` (stereo unspecified), for which the TGI was 77 µM with TK-10 renal; above 100 µM in the assay on OVCAR-5 ovarian; 36.7 µM in the assay on CCRF-CEM leukemia; 90.1 µM in the assay with A498 renal; 24.7 µM with SW-620 colon; 34.6 µM with OVCAR-3 ovarian. Moreover, the TGI in the assay on HCC-2998 colon amounted to 30.9 µM; in the assay with KM12 colon it was 21 µM; with HCT-116 colon, 26.3 µM.

`COC(=O)CCC(=O)CC(=O)C(=O)Nc1c(Cl)cc([N+](=O)[O-])cc1Cl`: the TGI in the assay on TK-10 renal, in the assay with OVCAR-5 ovarian, with CCRF-CEM leukemia, in the assay with A498 renal, in the assay on OVCAR-3 ovarian and in the assay on HCC-2998 colon was above 100 µM in each case. For the same molecule, the TGI in the assay with KM12 colon and in the assay on HCT-116 colon was above 100 µM throughout.

As to `CCc1cccc(C(C)C)c1NC(=O)C(=O)C(CC(=O)Nc1ccc(Cl)c(Cl)c1)C(=O)OC` (stereo unspecified), the TGI in the assay on TK-10 renal was above 100 µM; with OVCAR-5 ovarian it was above 100 µM; with CCRF-CEM leukemia, above 100 µM; with A498 renal it was above 100 µM; in the assay on SW-620 colon it was 24.6 µM; in the assay on OVCAR-3 ovarian, above 100 µM. The TGI in the assay on HCC-2998 colon, in the assay with KM12 colon and in the assay on HCT-116 colon was above 100 µM in each case.

`C[C@]1(CO)CCC[C@@]2(C)C1CC[C@H]1CC3C[C@]12CC[C@]3(C)O` (stereo partly specified): the TGI in the assay with TK-10 renal, with OVCAR-5 ovarian, with SW-620 colon, in the assay with OVCAR-3 ovarian, with HCC-2998 colon and in the assay on KM12 colon was above 100 µM each time. The TGI in the assay on HCT-116 colon is above 100 µM.

As for `Clc1ccc(C2SCc3nc4ccccc4n32)cc1Cl` (stereo unspecified), the TGI was 25.9 µM in the assay with TK-10 renal; 22.8 µM with OVCAR-5 ovarian; above 100 µM in the assay with CCRF-CEM leukemia; 28.6 µM with SW-620 colon; 22.5 µM in the assay on OVCAR-3 ovarian; 27 µM with KM12 colon. In the assay with HCT-116 colon, this molecule showed a TGI of 26.2 µM.

As for `S=c1cc(S)sc2c1c(=S)sc1nc3ccccn3c(=S)c12`, the TGI in the assay with TK-10 renal, with OVCAR-5 ovarian, with CCRF-CEM leukemia, in the assay on A498 renal, with SW-620 colon and in the assay on OVCAR-3 ovarian was above 100 µM each time. The TGI with HCC-2998 colon, in the assay with KM12 colon and in the assay with HCT-116 colon was above 100 µM each time.

In the case of `Fc1ccccc1C1CC(c2ccc3ccccc3c2)=Nc2ccccc2S1` (stereo unspecified), the TGI in the assay on TK-10 renal, with OVCAR-5 ovarian, with CCRF-CEM leukemia, in the assay with A498 renal, with SW-620 colon and with OVCAR-3 ovarian was above 100 µM throughout. For the same molecule, the TGI in the assay with HCC-2998 colon, in the assay on KM12 colon and with HCT-116 colon was above 100 µM each time.

For `O=C(CC1(O)C(=O)Nc2c(Cl)cc(Cl)cc21)c1cccc2ccccc12` (stereo unspecified), the TGI with TK-10 renal came out at 27.3 µM; in the assay with OVCAR-5 ovarian it was 37.1 µM; in the assay on CCRF-CEM leukemia, 41.3 µM; in the assay on A498 renal it was 37.3 µM; in the assay with SW-620 colon, 31.8 µM; in the assay with OVCAR-3 ovarian, 30 µM. The TGI was 31.5 µM in the assay on KM12 colon and 28.5 µM with HCT-116 colon.

Regarding `CC(=O)c1ccc(NC(=O)C(=O)Nn2c(=S)[nH]c3ccccc3c2=O)cc1`, the TGI with TK-10 renal, with OVCAR-5 ovarian, in the assay with A498 renal, in the assay with SW-620 colon, with OVCAR-3 ovarian and in the assay on HCC-2998 colon was above 100 µM in each case. Besides, the TGI in the assay on KM12 colon and in the assay with HCT-116 colon was above 100 µM throughout.

With `CCc1cccc(C(C)C)c1N1C(=O)C(=O)C(c2nc3ccccc3s2)C(=O)C1=O`, the TGI was above 50 µM in the assay with TK-10 renal; above 50 µM in the assay with OVCAR-5 ovarian; above 42.1 µM in the assay on CCRF-CEM leukemia; above 50 µM in the assay on A498 renal; above 50 µM in the assay on SW-620 colon; above 43.1 µM with OVCAR-3 ovarian. Besides, the TGI with HCC-2998 colon, with KM12 colon and in the assay on HCT-116 colon was above 50 µM throughout.

With `CCCCCCCCCCCCCP(=O)(O)OCC`, the TGI in the assay with TK-10 renal, in the assay with OVCAR-5 ovarian, with CCRF-CEM leukemia, with A498 renal, with SW-620 colon and in the assay on OVCAR-3 ovarian was above 100 µM each time. Besides, the TGI in the assay with HCC-2998 colon, in the assay on KM12 colon and with HCT-116 colon was above 100 µM each time.

For `CC(C)(C)c1cc2c3c(c1)C(C(F)(F)F)(C(F)(F)F)O[Te]3(C)OC2(C(F)(F)F)C(F)(F)F`, the TGI in the assay on TK-10 renal, with OVCAR-5 ovarian, with CCRF-CEM leukemia, in the assay on SW-620 colon, with OVCAR-3 ovarian and in the assay with HCC-2998 colon was above 100 µM each time. Moreover, the TGI in the assay with KM12 colon and in the assay on HCT-116 colon was above 100 µM each time.

Consider `NCCCNCCCCN(CCCN)/[N+]([O-])=N\O`, for which the TGI in the assay with OVCAR-5 ovarian, in the assay on CCRF-CEM leukemia, in the assay on SW-620 colon, with OVCAR-3 ovarian, with HCC-2998 colon and in the assay with KM12 colon was above 100 µM each time. The molecule also returned a TGI with HCT-116 colon above 100 µM.

(Values after PubChem BioAssay (NCI).)
